According to patent US9884823B2, “Oxime ether acetate compound, preparation method therefor and weeding application thereof” (ZHEJIANG UNIVERSITY OF TECHNOLOGY, priority 2014, dated 2018):
Like-named read-outs stand apart in the source and are kept apart here.

How the values were obtained:
Corn = conditions: post-emergence spray treatment
Eclipta prostrata = experiment: Potted plants live body test; assay type: in vivo; conditions: for efficiency, Eclipta prostrata: 30 days, Table 9
How it was run: (§1)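 Compounds dissolved in DMF with 1 wt % Tween-80, diluted with water to test concentrations. Weeds direct-seeded in pots of garden soil:nursery matrix 1:2 and then treated.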

Dog point = experiment: Potted plants live body test; assay type: in vivo
How it was run: as §1

amaranthus retroflexus = experiment: Potted plants live body test; assay type: in vivo
How it was run: as §1

Abutilon = experiment: Potted plants live body test; assay type: in vivo
How it was run: as §1

Crabgrass = experiment: Potted plants live body test; assay type: in vivo
How it was run: as §1

Barnyardgrass [1] = experiment: Potted plants live body test; assay type: in vivo, barnyard grass
Barley = conditions: post-emergence spray treatment
Radish = experiment: Culture dish method (general screening); assay type: in vivo; conditions: 100 mg/L, 7 days
Source text: (§2) Culture dish method (general screening): The test targets were radish, cucumber, rape, wheat, sorghum and barnyard grass; the seeds of wheat, sorghum and radish were germinated in advance, and the uniform emerge-germinating seeds were used in the test.

Soybean = conditions: 150 g a.i./ha; post-emergence spray treatment
Barnyardgrass [2] = experiment: Culture dish method (general screening); assay type: in vivo, barnyard grass; conditions: 100 mg/L, 7 days
Source text: as §2

Cucumber = experiment: Culture dish method (general screening); assay type: in vivo; conditions: 100 mg/L, 7 days
Source text: as §2

Chinese sorghum = experiment: Culture dish method (general screening); assay type: in vivo; conditions: 100 mg/L, 7 days
Source text: as §2

weeds = conditions: pre-emergence soil treatment; dose lowered below 150 g a.i./ha
[3] = tested on: broadleaf weeds such as mustard, small quinoa, Abutilon, Amaranthus retroflexus and Eclipta prostrate; conditions: 150 g a.i./ha
[4] = tested on: grass weeds such as crabgrass, barnyard grass, dog point
Small quinoa = conditions: 150 g a.i./ha, 30 days, Table 9
Cotton = conditions: 150 g a.i./ha; post-emergence spray treatment
Rape [5] = conditions: 150 g a.i./ha; post-emergence spray treatment
Mustard = conditions: 150 g a.i./ha, 30 days, Table 9
Wheat = experiment: Culture dish method (general screening); assay type: in vivo; conditions: 100 mg/L, 7 days
Source text: as §2

Rape [6] = experiment: Culture dish method (general screening); assay type: in vivo; conditions: 100 mg/L, 7 days
Source text: as §2

Rice = conditions: 150 g a.i./ha; post-emergence spray treatment
[7] = Pre-emergence soil treatment, 37.5 g a.i./ha
[8] = Pre-emergence soil treatment, 75 g a.i./ha
[9] = Pre-emergence soil treatment, 150 g a.i./ha, Table 10
[10] = postemergence spraying, 37.5 g a.i./ha
[11] = postemergence spraying, 75 g a.i./ha
[12] = postemergence spraying, 150 g a.i./ha, Table 10
[13] = Postemergence spraying, 150 g a.i./ha, 30 days, Table 9
[14] = Pre-emergence soil treatment, 150 g a.i./ha, 30 days, Table 9

CON=C(C(=O)OC)c1ccccc1COc1ccc(-c2ncc(Cl)cc2Cl)cc1 [Compound 133]
Crop inhibition rate, Corn (Corn; 150 g a.i./ha): 0% | crop safety for corns (Corn): safer | efficiency, Eclipta prostrata (Eclipta prostrata; Postemergence spraying, 150 g a.i./ha): 100% | efficiency, Eclipta prostrate (Eclipta prostrata; [7]): 0% | efficiency, Eclipta prostrate (Eclipta prostrata; [8]): 0% | efficiency, Eclipta prostrata (Eclipta prostrata; Pre-emergence soil treatment, 150 g a.i./ha): 100% | efficiency, Eclipta prostrate (Eclipta prostrata; [9]): 100% | efficiency, Eclipta prostrate (Eclipta prostrata; [10]): 97.5% | efficiency, Eclipta prostrate (Eclipta prostrata; [11]): 100% | efficiency, Eclipta prostrate (Eclipta prostrata; [12]): 100% | efficiency, Dog point (Dog point; [13]): 0% | efficiency, Dog point (Dog point; [7]): 0% | efficiency, Dog point (Dog point; [8]): 0% | efficiency, Dog point (Dog point; [14]): 50% | efficiency, Dog point (Dog point; [9]): 50% | efficiency, Dog point (Dog point; [10]): 0% | efficiency, Dog point (Dog point; [11]): 0% | efficiency, Dog point (Dog point; [12]): 0% | efficiency, amaranthus retroflexus (amaranthus retroflexus; [13]): 100% | efficiency, amaranthus retroflexus (amaranthus retroflexus; [7]): 20% | efficiency, amaranthus retroflexus (amaranthus retroflexus; [8]): 30% | efficiency, amaranthus retroflexus (amaranthus retroflexus; [14]): 100% | efficiency, amaranthus retroflexus (amaranthus retroflexus; [9]): 100% | efficiency, amaranthus retroflexus (amaranthus retroflexus; [10]): 100% | efficiency, amaranthus retroflexus (amaranthus retroflexus; [11]): 100% | efficiency, amaranthus retroflexus (amaranthus retroflexus; [12]): 100% | efficiency, Abutilon (Abutilon; [13]): 100% | efficiency, Abutilon (Abutilon; [7]): 0% | efficiency, Abutilon (Abutilon; [8]): 0% | efficiency, Abutilon (Abutilon; [14]): 100% | efficiency, Abutilon (Abutilon; [9]): 100% | efficiency, Abutilon (Abutilon; [10]): 100% | efficiency, Abutilon (Abutilon; [11]): 100% | efficiency, Abutilon (Abutilon; [12]): 100% | efficiency on Abutilon (Abutilon; postemergence treatment, over doses 150, 75, 37.5 g a.i./ha): 100% | efficiency, Crabgrass (Crabgrass; [13]): 0% | efficiency, Crabgrass (Crabgrass; [7]): 0% | efficiency, Crabgrass (Crabgrass; [8]): 0% | efficiency, Crabgrass (Crabgrass; [14]): 50% | efficiency, Crabgrass (Crabgrass; [9]): 50% | efficiency, Crabgrass (Crabgrass; [10]): 0% | efficiency, Crabgrass (Crabgrass; [11]): 0% | efficiency, Crabgrass (Crabgrass; [12]): 0% | efficiency, Barnyardgrass (Barnyardgrass [1]; [7]): 0% | efficiency, Barnyardgrass (Barnyardgrass [1]; [8]): 0% | efficiency, Barnyardgrass (Barnyardgrass [1]; [9]): 0% | efficiency, Barnyardgrass (Barnyardgrass [1]; [10]): 0% | efficiency, Barnyardgrass (Barnyardgrass [1]; [11]): 0% | efficiency, Barnyardgrass (Barnyardgrass [1]; [12]): 0% | Crop inhibition rate, Barley (Barley; 150 g a.i./ha): 0% | crop safety for barleys (Barley): safer | inhibition rate, Radish Root (Radish; root): 100% | inhibition rate, Radish Stem (Radish; stem): 100% | Crop inhibition rate, Soybean (Soybean): 40% | inhibition rate, Barnyardgrass Root (Barnyardgrass [2]; root): 100% | inhibition rate, Barnyardgrass Stem (Barnyardgrass [2]; stem): 100% | inhibition rate, Cucumber Root (Cucumber; root): 100% | inhibition rate, Cucumber Stem (Cucumber; stem): 100% | inhibition rate, Chinese sorghum Root (Chinese sorghum; root): 100% | inhibition rate, Chinese sorghum Stem (Chinese sorghum; stem): 100% | activity on 6 kinds of weed targets (weeds): significantly decreased activity or no activity | inhibition rate on the growth of broadleaf weeds ([3]; 30 days): 100% | herbicidal activity on broadleaf weeds targets ([3]; 30 days after administration, Table 9 summary): herbicidal activity | activity on the growth of broadleaf weeds ([3]; postemergence spraying, 30 days, vs clear water control): inhibitory activity | activity for grass targets such as crabgrass and dog point ([4]; 150 g a.i./ha, 30 days after administration, Table 9 summary): poor activity | activity on grass weeds such as crabgrass, dog point ([4]; postemergence spraying, 150 g a.i./ha, 30 days): almost have no activity | activity on crabgrass, barnyard grass, dog point ([4]; postemergence treatment, 150, 75, 37.5 g a.i./ha): not good activity or no activity | activity on grass weeds ([4]; pre-emergence soil treatment, 150 g a.i./ha): not good activity | efficiency, Small quinoa (Small quinoa; Postemergence spraying): 100% | efficiency, Small quinoa (Small quinoa; Pre-emergence soil treatment): 100% | Crop inhibition rate, Cotton (Cotton): 50% | Crop inhibition rate, Rape (Rape [5]): 100% | efficiency, Mustard (Mustard; Postemergence spraying): 100% | efficiency, Mustard (Mustard; Pre-emergence soil treatment): 100% | inhibition rate, Wheat Root (Wheat; root): 50% | inhibition rate, Wheat Stem (Wheat; stem): 0% | inhibition rate, Rape Root (Rape [6]; root): 100% | inhibition rate, Rape Stem (Rape [6]; stem): 100% | Crop inhibition rate, Rice (Rice): 30%
